Test [1] concerns gastric (AGS) cancer cell line. In words: MTS proliferation assay, AGS. The test is classed as cell-based, human. Particulars: for viability (anti-proliferative activity), MTS: as a function of time, triplicate. An excerpt: (§1) FIGS. 10A-10F compare anti-proliferative activity of 10 nmoles of compounds −0045 and −0052 against gastric (AGS) (FIGS. 10B and 10C, respectively) and pancreatic (ASPC1) (FIGS. 10E and 10F, respectively) cancer cell lines, as measured as a function of time and compared to palbociclib (−000) (FIGS. 10A-AGS; and 10D-ASPC1) using standard MTS assays in the indicated cell lines; results were in triplicate with reported experimental uncertainty.
(§2) FIGS. 11A-11F compare anti-proliferative activity of 5 nmoles of compounds −0045 and −0052 against gastric (AGS) (FIGS. 11B and 11C, respectively) and pancreatic (ASPC1) (FIGS. 11E and 11F, respectively) cancer cell lines, as measured as a function of time and compared to palbociclib (−000) (FIGS. 11A-AGS; and 11D-ASPC1), using standard MTS assays in the indicated cell lines; results were in triplicate with reported experimental uncertainty.
(§3) The anti-proliferative activity of compounds −0045 and −0052 in two cell lines characterized by high levels of miR-21 (gastric adenocarcinoma (AGS) and pancreatic (ASPC1) cancer origin) was determined. These experiments were conducted in a double-blind format, without knowledge of the identity or binding activity of the compounds, to avoid any unintentional bias. […] Viability in the presence of both palbociclib and compound −0052 is decreased after approximately 72-96 hrs to a statistically significant extent (data points marked with asterisks are statistically significant).
(§4) Cell line maintenance. Using the Cancer Cell Line Encyclopedia (CCLE), in-house cancer cell lines were screened to identify cancer and tissue types with varying levels of miR-21 expression. Experiments were performed using the human-derived cell lines AGS (gastric cancer) and AsPC-1 (pancreatic cancer). Cell lines were obtained from the American Type Culture Collection and maintained per instructions from the supplier. AGS were cultured in F12K medium supplemented with 10% FBS. AsPC-1 were cultured in RPMI, with 10% FBS added. All cells were kept at 37° C. in a humidified atmosphere of 5% CO2 and underwent regular mycoplasma testing. All experiments were conducted when cells were 70-80% confluent.
(§5) Proliferation assay. The impact of the compound on cellular proliferation was assessed, with 5,000 cells in each cell line seeded in replicates of 6 in a 96 well plate and treated with DMSO or with compounds. After 48 hours, cells were treated with the MTS reagent and optical density was read to generate dose-response curves.
(In general: Tetrazolium assays rely on reduction of a dye to a coloured formazan, in cell work by metabolically active cells.)

Test [2] relates to pancreatic (ASPC1) cancer cell line. Kind of test: MTS proliferation assay, ASPC1. The conditions noted are these: for viability (anti-proliferative activity), MTS: as a function of time, triplicate. It is filed as cell-based, human.
From the text: as §1, §2, §3, §4, §5

Test [3] relates to mature miR-21 in HeLa cells. Kind of test: qRT-PCR of mature miR-21 in HeLa cells. The test is classed as cell-based. The conditions noted are these: for decline in levels of mature miR-21: days 4 and 5 of incubation, normalized to no compound; for reduction of all newly synthesized miR-21: worked out from the 20% decrease and miR-21 lifetime of approximately 5 days. The method, then:
FIGS. 12A and 12B compare levels of mature miR-21 in HeLa cells, as measured by standard qRT-PCR after 5 days of incubation in the presence of palbociclib and compounds −0045 (sm1), −0050 (sm3) and −0052 (sm5) (FIG. 12A); and levels of mature miR-21 in HeLa cells were measured by qRT-PCR after 4 days of incubation in the presence of palbociclib (a control) and compounds −0045 (sm1), −0050 (sm3) and −0052 (sm5) (FIG. 12B), normalized to miR-21 levels in the absence of any compound. […] The two panels represent independent duplicates of the same experiment.
HeLa cells have relatively high levels of miR-21, and this cell line was used to evaluate whether addition of the molecules would decrease levels of mature miR-21, as expected for inhibition of miR-21 processing. […] In contrast, compounds −0045, −50 and −52, induce an approximately 20% percent decline in levels of mature miR-21 (FIGS. 12A and 12B; the comparison of FIG. 12A and FIG. 12B provides an indication in the uncertainty of the data). miR-21 is very long lived, with a lifetime of approximately 5 days. […] Similar results were obtained at higher numbers of cells/plate (200 k vs at the start of the experiment), but the experiment could not be extended beyond 2 days because of the very high cell density reached. The observed trends were nonetheless in agreement with the experiments conducted at lower cell density.
A general note: Quantitative PCR measures a nucleic acid by following its amplification.

In test [4] the test system is mature miR-21 and pre-miR-21 in AGS cells. In words: qRT-PCR of mature miR-21 and pre-miR-21 in AGS cells. The test is classed as cell-based, human. The conditions noted are these: 10 nmoles, 48 hours, relative to DMSO control. On the procedure:
(§6) FIGS. 13A-13D compare levels of mature miR-21 and pre-mi-21 measured in gastric adenocarcinoma (AGS) (FIGS. 13A and 13B, respectively) and pancreatic cancer cell line (ASPC 1) (FIGS. 13C and 13D, respectively), normalized to internal controls (U6 or U8 snRNA), in the presence of 10 nmoles of palbociclib (used here as a negative control, not expected to affect microRNA levels) and compounds −0045 and −0052, 48 hours after incubation, relative to DMSO control, and measured by standard qRT-PCR. Statistically significant changes are labeled with asterisks.
(§7) Levels of mature miR-21 and its precursor pre-miR-21 were measured in gastric carcinoma (ASG) and pancreatic (ASPC1) cancer cell lines under conditions where we observed a decrease in proliferation (FIGS. 13A-13D), using the same blind format described above.
as §4
(§8) Quantitative real time PCR analysis. RNA was isolated utilizing Trizol (Invitrogen) and the Direct-zol RNA Miniprep kit (Zymo Research). RNA concentration was assessed with the NanoDrop ND-1000 spectrophotometer (ThermoFisher Scientific). All microRNAs expression was tested in the two representative cell lines using qRT-PCR. Cells were seeded in 6-well plates 24 hours before treatment, at a cell confluency of 50-60%. Each cell line was treated with 10 μM compound or with only the dimethyl sulfoxide (DMSO) solvent. RNA was collected after the 48-hour time point. Expression of miR-21 was assessed utilizing the TaqMan microRNA assay (Applied Biosystems). The complementary DNA (cDNA) was synthesized using the TaqMan Reverse Transcription Reagents kit (Applied Biosystems) and was used with the TaqMan probes and Supermix (BioRad) for qRT-PCR analysis. U6 or U48 were used as internal controls for RNA levels. All experiments were performed in triplicate, with all samples normalized to the internal controls and relative expression levels calculated using the 2^ΔΔCt method.

In test [5] the test system is mature miR-21 and pre-miR-21 in ASPC1 cells. Kind of test: qRT-PCR of mature miR-21 and pre-miR-21 in ASPC1 cells. It is filed as cell-based, human. The conditions noted are these: ASPC1, 10 nmoles, 48 hours, relative to DMSO control. On the procedure:
as §6, §7, §4, §8

For the molecule `O=c1[nH]c(Nc2ccc(N3CCNCC3)cn2)nc2cccnc12` [Compound 25], the “viability (anti-proliferative activity), MTS” value in test [1] (5 nmoles of compound) is reported as “does not”; in test [1] (10 nmoles of compound) it was “does not”; in test [2] (ASPC1, 5 nmoles of compound) it was “does not”; in test [2] (ASPC1, 10 nmoles of compound), “does not”. The “decline in levels of mature miR-21” value in test [3] is on record as “approximately 20%”. Moreover, in test [3], the “reduction of all newly synthesized miR-21” value was “about 60%”. Besides, the “decrease in mature miR-21 levels” value in test [4] and in test [5] was 40% in each case. Further, the pre-miR-21 levels entry in test [4] and in test [5] was “reduction in pre-miR-21 levels” in each case.

As for `O=c1[nH]c(Nc2ccc(N3CCNCC3)cn2)nc2cnccc12` [Compound 30], the “viability (anti-proliferative activity), MTS” value is “reduce the viability of both cell lines to a statistically significant extent” in test [1] (5 nmoles of compound); “reduce the viability of both cell lines to a statistically significant extent” in test [1] (10 nmoles of compound); “reduce the viability of both cell lines to a statistically significant extent” in test [2] (ASPC1, 5 nmoles of compound); “reduce the viability of both cell lines to a statistically significant extent” in test [2] (ASPC1, 10 nmoles of compound). Moreover, the “cell killing activity, MTS over 6 days” value in test [1] (both concentrations tested (10 and 5 nmols), double-blind) is recorded as “Cell killing activity”; in test [2] (ASPC1, both concentrations tested (10 and 5 nmols), double-blind), “Cell killing activity”. The “decline in levels of mature miR-21” value in test [3] is recorded as “approximately 20%”. Also, the “reduction of all newly synthesized miR-21” value in test [3] is “about 60%”. For the same molecule, the “decrease in mature miR-21 levels” value in test [4] and in test [5] was 40% throughout. For the same molecule, the pre-miR-21 levels entry in test [4] and in test [5] was “reduction in pre-miR-21 levels” throughout.
